2 compounds from patent US20080312344A1, “DENDRIMERS MULTIVALENTLY SUBSTITUTED WITH ACTIVE GROUPS” (priority 2005, published 2008) can be followed below.

Assay [1] deals with Candida albicans (strain CBS 562). The assay is described as follows: adhesion inhibition of Candida albicans. The settings on record: CBS562. The class given is cell-based. How it is done:
Di-, tetra- and octavalent GINAc-linked “click” glycodendrimers as depicted herein-below were evaluated as adhesion inhibitors of Candida albicans (strain CBS 562) and compared to the free monosaccharide GlcNAc (N-acetyl glucosamine).

A further assay concerns the target T1, rat receptor NKRPI (Rattus norvegicus, UniProt P27471).
T1 sequence (P27471 1-223): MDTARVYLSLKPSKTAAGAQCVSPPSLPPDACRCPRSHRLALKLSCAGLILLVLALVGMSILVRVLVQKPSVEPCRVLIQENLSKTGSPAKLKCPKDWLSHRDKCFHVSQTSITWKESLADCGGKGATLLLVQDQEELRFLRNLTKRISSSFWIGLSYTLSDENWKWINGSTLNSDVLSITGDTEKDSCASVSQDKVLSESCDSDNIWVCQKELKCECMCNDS
The assay is described as follows: ELISA type assay, interaction with NKRPI receptor. The class given is binding. How it is done:
(§1) In addition, as a model for the interference with the natural killer cells of the immune system, the compounds were evaluated in an ELISA type assay for their interaction with the rat receptor NKRPI and the human CD 69 receptor.

The target of a further assay is T2, human CD 69 receptor (Homo sapiens, UniProt Q07108).
T2 sequence (Q07108 1-199): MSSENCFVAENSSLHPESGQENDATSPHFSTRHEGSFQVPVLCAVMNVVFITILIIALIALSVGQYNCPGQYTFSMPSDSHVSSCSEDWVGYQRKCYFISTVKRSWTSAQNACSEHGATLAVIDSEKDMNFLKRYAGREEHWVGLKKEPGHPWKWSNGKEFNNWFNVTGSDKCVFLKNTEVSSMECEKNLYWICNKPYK
The assay is described as follows: ELISA type assay, interaction with CD 69 receptor. The class given is binding. How it is done:
as §1

Structures are written as SMILES.

`CC(=O)N[C@H]1C(O)O[C@H](CO)[C@@H](O)[C@@H]1O` (some centres unmarked) [GlcNAc, N-acetyl glucosamine, reference compound]: 113 µM produced 79% inhibition in assay [1]. The IC50 is 1 µM on rat receptor NKRPI (read-out: −log IC50 (NKRPI) (converted)) and 5.01 µM on human CD 69 receptor (read-out: −log IC50 (CD69) (converted)).

Regarding `COC(=O)c1cc(OCCNC(=O)c2cc(OCc3cn(CCCOC4OC(CO)C(O)C(O)C4NC(C)=O)nn3)cc(OCc3cn(CCCOC4OC(CO)C(O)C(O)C4NC(C)=O)nn3)c2)cc(OCCNC(=O)c2cc(OCc3cn(CCCOC4OC(CO)C(O)C(O)C4NC(C)=O)nn3)cc(OCc3cn(CCCOC4OC(CO)C(O)C(O)C4NC(C)=O)nn3)c2)c1` (centres unmarked) [TETRA], on rat receptor NKRPI, the “−log IC50 (NKRPI)” value came to 8.5. Further, at human CD 69 receptor, the “−log IC50 (CD69)” value worked out at 7.54.
